Test results taken from patent US12599604B2, “Application of JAK inhibitor in kidney disease” (JIANGSU HENGRUI PHARMACEUTICALS CO., LTD., priority 2020, dated 2026).

Tests used:
[1] = test system: cisplatin-induced acute kidney injury mouse models; assay: Cisplatin-induced acute kidney disease models (Example 4); assay type: in vivo; settings: for mortality rate of the mice: day 7 post modeling, same dosage (2.5 mg/kg oral BID per the 4th table), n=10
Protocol: After arrival and subsequent 7-day acclimation, the animals were randomly grouped. Except the animals in the control group, all other animals needed to be modeled by intraperitoneal injection with cisplatin. From day −3 to day 0, the mice in each group were administered BID. On the day of modeling (day 0), the animals were intraperitoneally injected with cisplatin (15 mg/kg) post administration in the morning. The dosing was continued until day 7. After the modeling, serum and urine samples were collected from the animals on day 4 and day 7, respectively, to measure the blood creatinine, urea nitrogen, and urinary albumin/creatinine (UACR) levels.
(§1) The effects of the compounds on the kidney were then evaluated.

[2] = biological target: Janus kinase subtype 1 (Homo sapiens, UniProt P23458); settings: background statement, no data; cited from earlier work
[3] = test system: LPS-induced acute kidney injury mouse models; assay: Lipopolysaccharide (LPS)-induced acute kidney disease models (Example 3); assay type: in vivo; settings: FIG. 10
Protocol: After arrival and subsequent 7-day acclimation, the animals were randomly grouped. Except the animals in the control group, all other animals needed to be modeled by intraperitoneal injection with LPS. From day −2 to day 0, the mice in each group were administered by gavage, BID. On the day of modeling (day 0), the animals were intraperitoneally injected with LPS (12 mpk) post administration in the morning. Blood samples were collected after 24 h, and creatinine and urea nitrogen levels were measured.
as §1

[4] = test system: ischemia-reperfusion mouse models; assay: Ischemia-reperfusion models in mice (Examples 1 and 2); assay type: in vivo
Protocol: After arrival and subsequent 7-day acclimation, the animals were randomly grouped. Except the animals in the control group, all other animals needed to be modeled. On day −1, the mice in each group were administered by gavage twice a day (BID). On the day of surgery (day 0), the mice underwent surgery post administration in the morning. On day 1, the dosing was continued, and on day 2, the endpoint treatment was performed. The mice were subjected to blood collection 24 hours and 48 hours post surgery, and for the endpoint treatment, their kidneys were taken and fixed in a formaldehyde solution for subsequent HE pathological detection.
The specific steps of the ischemia-reperfusion surgery were as follows: the mice were anesthetized with 4% chloral hydrate (10 ml/kg, ip) and secured in a prone position. An incision was made on the back and the right kidney was isolated while ensuring that the adrenal gland and ureter were not injured. The renal artery and renal vein were ligated and the right kidney was excised. The left kidney was isolated, and the renal arterial and venous tracts were carefully separated and clipped for 30 min using a mini bulldog clamp, and then the clamp was loosened. The skin was sutured layer by layer with a needle and thread, and the mice were returned to their cages for recovery.
as §1

Chain of Janus kinase subtype 1 (P23458 whole entry): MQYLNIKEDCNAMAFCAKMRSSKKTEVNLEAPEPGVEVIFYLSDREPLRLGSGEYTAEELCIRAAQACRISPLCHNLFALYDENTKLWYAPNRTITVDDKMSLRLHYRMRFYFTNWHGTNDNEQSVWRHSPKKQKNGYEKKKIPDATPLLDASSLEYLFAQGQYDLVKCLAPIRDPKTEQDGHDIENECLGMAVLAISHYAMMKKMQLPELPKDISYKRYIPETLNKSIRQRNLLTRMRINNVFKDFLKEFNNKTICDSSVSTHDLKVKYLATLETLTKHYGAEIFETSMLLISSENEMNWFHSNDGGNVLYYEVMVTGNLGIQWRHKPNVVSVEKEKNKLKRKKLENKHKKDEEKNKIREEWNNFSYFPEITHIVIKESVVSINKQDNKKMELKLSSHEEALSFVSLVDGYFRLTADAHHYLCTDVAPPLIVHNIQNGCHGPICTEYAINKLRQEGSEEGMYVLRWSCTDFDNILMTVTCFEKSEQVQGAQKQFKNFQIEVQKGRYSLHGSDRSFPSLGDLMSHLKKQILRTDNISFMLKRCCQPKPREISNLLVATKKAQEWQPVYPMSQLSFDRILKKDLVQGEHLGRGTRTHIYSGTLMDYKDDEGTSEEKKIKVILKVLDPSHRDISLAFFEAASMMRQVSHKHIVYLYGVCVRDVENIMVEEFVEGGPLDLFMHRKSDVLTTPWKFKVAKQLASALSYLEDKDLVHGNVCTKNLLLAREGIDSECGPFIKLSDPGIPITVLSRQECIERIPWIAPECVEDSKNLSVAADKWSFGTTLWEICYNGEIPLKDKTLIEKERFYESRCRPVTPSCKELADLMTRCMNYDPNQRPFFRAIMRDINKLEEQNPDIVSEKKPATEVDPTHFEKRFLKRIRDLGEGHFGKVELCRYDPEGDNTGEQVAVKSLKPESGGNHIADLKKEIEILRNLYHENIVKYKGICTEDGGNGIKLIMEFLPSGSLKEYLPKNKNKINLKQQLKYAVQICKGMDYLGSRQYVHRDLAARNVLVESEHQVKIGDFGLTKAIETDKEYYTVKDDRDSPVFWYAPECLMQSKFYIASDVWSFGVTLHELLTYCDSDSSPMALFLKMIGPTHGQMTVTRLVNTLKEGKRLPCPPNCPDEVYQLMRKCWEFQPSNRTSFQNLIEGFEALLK

Compound	mortality rate of the mice [1] [%]	inhibitory activity against Janus kinase subtype 1 relative to subtype 2 or subtype 3 (selectivity) [2]	blood creatinine and urinary albumin levels induced by cisplatin ([1]; 1.25, 2.5, 5 mg/kg oral BID, cisplatin 15 mg/kg ip, FIG. 11)	blood creatinine, blood urea nitrogen, urinary albumin/creatinine ratio, significance ([1]; 2.5 mpk and 5 mpk oral BID, FIG. 11)	kidney protective functions compared with compound B ([1]; cisplatin models, FIG. 11)	mortality of the mice ([1]; different dosages (1.25, 2.5, 5 mg/kg oral BID), model group 100% dead on day 6)	kidney protective functions, 5 mpk and 10 mpk compared with 2.5 mpk group ([3]; 5 mpk and 10 mpk oral BID)	blood creatinine and urea nitrogen levels induced by LPS ([3]; different dosage groups (2.5, 5, 10 mg/kg oral BID), 24 h after LPS 12 mpk ip)	kidney/body weight ratio (renal compensatory hypertrophy) ([4]; Example 1, 10 mg/kg oral BID, 48 hours post modeling, FIG. 6)	improvement of kidney/body weight ratio compared with compound B ([4]; Example 1, 10 mg/kg oral BID, FIG. 6)	body weight reduction caused by ischemia-reperfusion ([4]; Example 1, 10 mg/kg oral BID, compared with compound B at the same dosage, FIG. 5)	kidney HE pathological scores ([4]; Example 1, 10 mg/kg oral BID, scores 0-3, FIG. 9)	blood creatinine and urea nitrogen, difference from the model group ([4]; Example 2, 5 mpk and 10 mpk oral BID, FIG. 8)	renal hypertrophy, difference from the model group ([4]; Example 2, 5 mpk oral BID, FIG. 7)	renal hypertrophy caused by ischemia-reperfusion (kidney/body weight ratio) ([4]; Example 2, all dosage groups 2.5 mpk, 5 mpk and 10 mpk oral BID, FIG. 7)	blood creatinine and urea nitrogen levels ([4]; Example 2, all dosage groups 2.5 mpk, 5 mpk and 10 mpk oral BID, FIG. 8)	blood creatinine and urea nitrogen, protective effect compared with compound B ([4]; Example 2, same dosage (5 mg/kg oral BID), FIG. 8)	overall kidney protective effect compared with compound B ([4]; Examples 1 and 2)	overall kidney protective effect (mortality, renal hypertrophy, kidney pathology, blood biochemical parameters) ([4]; Examples 1 and 2, compared with the model group)
CCS(=O)(=O)N1CC(CC#N)(n2cc(-c3ncnc4[nH]ccc34)cn2)C1 [Compound B, Baricitinib, reference compound]	80																		
COc1nsc(NC(=O)N2C[C@H]3C[C@H](N(C)c4ncnc5[nH]ccc45)C[C@H]3C2)n1 [Compound A, (3 aR,5 s,6aS)—N-(3-methoxy-1,2,4-thiadiazol-5-yl)-5-(methyl(7H-pyrrolo[2,3-d]pyrimidin-4-yl)amino)hexahydrocyclopenta[c]pyrrole-2(1H)-carb oxamide]	40	stronger inhibitory activity against Janus kinase subtype 1 relative to Janus kinase subtype 2 or Janus kinase subtype 3	dose-dependently alleviated the increase in blood creatinine and urinary albumin levels	showed significant differences	exhibited stronger kidney protective functions	significantly decreased the mortality	Stronger kidney protective functions	significantly alleviated the increase in blood creatinine and urea nitrogen levels	decreased kidney/body weight ratios	had some advantages in improving the kidney/body weight ratios	smaller decrease in body weight	significantly improved the kidney HE pathological scores	showed significant differences compared with the model group	significant difference	could reduce the renal hypertrophy	alleviated the increase in blood creatinine and urea nitrogen levels	stronger protective effect compared with compound B	more excellent kidney protective effect	exhibited kidney protective effects
